Earlier results on two compounds are cited in patent publication US12016331B2, “Microemulsions and uses thereof as delivery systems” (ARCHER DANIELS MIDLAND COMPANY, priority 2012, dated 2024).

In the case of `CC(O)C(=O)O` (centres unmarked) [lactic acid], the “LD 50 value, dermal toxicity” value is on record as “greater than 3000 mg/Kg”.

With `CCC(=O)O` [propionic acid], the “LD 50 value, dermal toxicity” value was 500 mg/kg.
